Assay results reported in ChEMBL document CHEMBL1201862, “PubChem BioAssay data set” (2004).
Activity calls are given as the source filed them.

Experiments:
[1] = test system: BJ; assay: cytotoxicity toward BJ-TERT-LT-ST fibroblasts, dose response, cell-based, RAS-independent, luminescence (AID 1935); type: functional; conditions: Homo sapiens;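 also: BJ fibroblasts immortalized with TERT plus LT and ST oncogenes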
[2] = test system: Vero; assay: cells; type: functional, cell-based; conditions: Chlorocebus sabaeus
[3] = test system: INS1; assay: beta cell apoptosis inhibitors, cytokine rescue, dose response, luminescence, retest (AID 449756); type: functional, cell-based; conditions: Rattus norvegicus;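 also: cell death triggered by IL-1 beta plus TNF-alpha plus IFN-gamma mixture; protective hits raise ATP signal compared with cytokine alone wells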
[4] = test system: BJ; assay: cytotoxicity toward Ras-transformed BJeLR fibroblasts, dose response, cell-based, alamar blue fluorescence, cherrypicked samples (AID 2631); type: functional; conditions: Homo sapiens;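 also: confirmatory dose-response assay in RAS-dependent BJ fibroblasts engineered with TERT, LT and ST, with cytotoxicity read by fluorescence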
[5] = cytotoxicity toward DRD oncogenic fibroblasts, dose response, cell-based, non-viral oncogenic, luminescence (AID 1934); type: functional; conditions: Homo sapiens
[6] = test system: Vero; assay: cells; type: functional; conditions: Chlorocebus sabaeus
[7] = target: ATP-dependent molecular chaperone HSP82 (Candida albicans (strain WO-1) (Yeast), UniProt C4YTQ8); assay: loss of DOC-induced GRE-beta-galactosidase reporter signal, dose response, Hsp90 inhibitor project, S. cerevisiae, luminescence (AID 2400); type: functional, cell-based;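 also: beta-galactosidase luminescence from glucocorticoid response element reporter as proxy for Hsp90 function; inhibitor potency where signal loss means Hsp90 inhibition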
Chain of ATP-dependent molecular chaperone HSP82 (C4YTQ8 whole entry): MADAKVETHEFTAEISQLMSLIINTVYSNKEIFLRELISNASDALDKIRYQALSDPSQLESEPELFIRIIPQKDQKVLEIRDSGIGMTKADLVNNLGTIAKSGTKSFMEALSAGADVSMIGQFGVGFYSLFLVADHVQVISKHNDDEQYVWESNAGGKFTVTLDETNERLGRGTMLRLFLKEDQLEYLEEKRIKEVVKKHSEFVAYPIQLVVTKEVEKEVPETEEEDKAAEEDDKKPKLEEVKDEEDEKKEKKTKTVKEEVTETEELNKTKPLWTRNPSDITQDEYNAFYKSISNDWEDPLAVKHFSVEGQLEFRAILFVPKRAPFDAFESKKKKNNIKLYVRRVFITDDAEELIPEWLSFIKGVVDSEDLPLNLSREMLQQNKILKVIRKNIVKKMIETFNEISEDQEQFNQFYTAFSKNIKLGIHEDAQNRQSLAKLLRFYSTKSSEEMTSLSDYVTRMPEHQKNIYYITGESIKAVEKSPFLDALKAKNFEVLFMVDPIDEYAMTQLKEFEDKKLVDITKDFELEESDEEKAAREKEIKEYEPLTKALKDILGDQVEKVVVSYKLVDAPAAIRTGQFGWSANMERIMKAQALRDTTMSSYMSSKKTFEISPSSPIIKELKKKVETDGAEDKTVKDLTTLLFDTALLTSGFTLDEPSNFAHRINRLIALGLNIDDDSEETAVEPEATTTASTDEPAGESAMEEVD

[8] = test system: BJ; assay: cells; type: functional, cell-based; conditions: Homo sapiens
[9] = target: T1, Serine/threonine-protein phosphatase (Candida dubliniensis (strain CD36 / CBS 7987 / NCPF 3949 / NRRLY-17841) (Yeast), UniProt B9W6M3); assay: calcineurin pathway inhibitors in yeast reporter, dose response, S. cerevisiae, CDRE-lacZ, luminescence, secondary (AID 2388); type: functional, cell-based;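 also: yeast reporter cells carrying a calcineurin-responsive lacZ construct stimulated with calcium chloride; luminescent beta-galactosidase reporter signal in whole cells rather than isolated phosphatase activity; potency for inhibition where a drop in reporter signal means calcineurin blockade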
T1 sequence (B9W6M3 whole entry): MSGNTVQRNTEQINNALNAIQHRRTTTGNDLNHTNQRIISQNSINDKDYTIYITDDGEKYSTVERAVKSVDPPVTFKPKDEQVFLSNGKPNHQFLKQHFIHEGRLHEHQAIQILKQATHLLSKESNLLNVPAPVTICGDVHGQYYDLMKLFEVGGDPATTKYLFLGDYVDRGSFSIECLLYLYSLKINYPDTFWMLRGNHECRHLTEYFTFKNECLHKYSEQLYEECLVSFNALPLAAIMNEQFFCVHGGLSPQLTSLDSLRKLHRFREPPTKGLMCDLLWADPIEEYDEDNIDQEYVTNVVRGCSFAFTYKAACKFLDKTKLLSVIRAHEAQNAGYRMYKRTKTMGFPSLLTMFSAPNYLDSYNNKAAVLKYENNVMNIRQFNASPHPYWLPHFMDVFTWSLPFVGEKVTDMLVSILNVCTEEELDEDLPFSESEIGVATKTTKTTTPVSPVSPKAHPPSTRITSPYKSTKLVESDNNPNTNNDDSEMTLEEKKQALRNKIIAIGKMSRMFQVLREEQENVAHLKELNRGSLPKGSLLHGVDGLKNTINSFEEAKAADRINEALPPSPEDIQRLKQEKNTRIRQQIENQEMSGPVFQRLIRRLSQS

[10] = C. albicans growth with fluconazole, confirmation, fluorescence, retest (AID 2467); type: functional, cell-based
[11] = test system: HEK293; assay: cells; type: functional, cell-based; conditions: Homo sapiens
[12] = test system: HEK293; assay: cells; type: functional, cell-based; conditions: Homo sapiens; remark: listed apart in the source
[13] = test system: HEK293; assay: inhibitors of LMP1-driven NF-kB reporter, dose response, cell-based, HEK293, luciferase, cherry-pick (AID 588343); type: functional; conditions: Homo sapiens
[14] = test system: BJ; assay: cytotoxicity toward BJ-TERT fibroblasts, dose response, cell-based, RAS-independent, luminescence (AID 1933); type: functional; conditions: Homo sapiens
[15] = target: Nucleotide-binding oligomerization domain-containing protein 2 (Homo sapiens, UniProt Q9HC29); assay: NOD2 signaling inhibitors, cell-based, luminescence, uHTS, HEK293 (AID 1566); type: functional
Chain of Nucleotide-binding oligomerization domain-containing protein 2 (Q9HC29 whole entry, the tested form may be a part): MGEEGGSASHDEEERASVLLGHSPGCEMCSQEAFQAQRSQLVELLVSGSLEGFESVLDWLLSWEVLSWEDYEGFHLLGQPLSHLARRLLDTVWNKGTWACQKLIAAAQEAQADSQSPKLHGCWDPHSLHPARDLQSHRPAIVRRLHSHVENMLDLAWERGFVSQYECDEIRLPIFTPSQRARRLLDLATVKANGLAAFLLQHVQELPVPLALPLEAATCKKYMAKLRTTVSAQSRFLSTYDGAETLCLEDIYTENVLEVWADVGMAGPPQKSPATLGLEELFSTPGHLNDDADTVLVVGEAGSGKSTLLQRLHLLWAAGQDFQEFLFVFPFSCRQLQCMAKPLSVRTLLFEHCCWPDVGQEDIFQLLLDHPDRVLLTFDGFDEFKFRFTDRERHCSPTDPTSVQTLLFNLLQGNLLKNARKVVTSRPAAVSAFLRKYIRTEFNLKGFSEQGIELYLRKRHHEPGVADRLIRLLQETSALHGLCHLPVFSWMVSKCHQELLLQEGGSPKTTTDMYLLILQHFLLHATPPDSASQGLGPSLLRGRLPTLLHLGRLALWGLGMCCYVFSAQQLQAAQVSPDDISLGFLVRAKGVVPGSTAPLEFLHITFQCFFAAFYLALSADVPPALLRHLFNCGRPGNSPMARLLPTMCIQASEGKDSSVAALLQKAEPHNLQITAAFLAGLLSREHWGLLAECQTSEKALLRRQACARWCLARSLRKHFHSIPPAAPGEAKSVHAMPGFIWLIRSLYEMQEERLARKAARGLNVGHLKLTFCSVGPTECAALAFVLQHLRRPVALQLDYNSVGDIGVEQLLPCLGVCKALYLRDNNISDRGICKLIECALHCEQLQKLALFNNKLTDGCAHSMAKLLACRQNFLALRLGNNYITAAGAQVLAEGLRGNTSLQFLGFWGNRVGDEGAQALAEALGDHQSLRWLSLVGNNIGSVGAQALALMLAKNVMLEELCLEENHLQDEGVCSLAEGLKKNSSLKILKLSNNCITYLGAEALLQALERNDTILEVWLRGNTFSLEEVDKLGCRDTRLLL

[16] = target: Voltage-gated inwardly rectifying potassium channel KCNH2 (Homo sapiens, UniProt Q12809); assay: hERG protection from proarrhythmic block, potency, dose response, cell-based, thallium flux (AID 2121); type: ADME
[17] = test system: HEK293; assay: NOD1 signaling inhibitors, primary screen, cell-based, luminescence, uHTS (AID 1578); type: functional; conditions: Homo sapiens
[18] = test system: HEK293; assay: NOD2 signaling inhibitors in MDP-stimulated cells, cell-based, uHTS, luminescence (AID 2001); type: functional; conditions: Homo sapiens
[19] = target: Heat shock protein HSP 90-alpha (Homo sapiens, UniProt P07900); type: functional, organism-based
[20] = NIH-3T3 fibroblast cytotoxicity, dose response, cytotoxicity control, cell-based, fluorescence, Alamar Blue, secondary assay (AID 2327); type: functional;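 also: NIH-3T3 mouse fibroblasts cultured with fluconazole at 8 µg/mL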
[21] = test system: HEK293; assay: cells; type: functional, cell-based; conditions: Homo sapiens; remark: listed apart in the source
[22] = Counterscreen for IDE inhibitors: Luminescence-based cell-based high throughput dose response assay to identify compounds that are cytotoxic to HEK cells. [Related pubchem assays: 434962 (Primary screen (IDE inhibitors in singlicate)), 449730 (Counterscreen (Cytotoxicity in triplicate)), 435028 (Confirmation (IDE inhibitors in triplicate)) …; type: functional; conditions: HEK293
[23] = target: Prothrombin (Bos taurus, UniProt P00735); assay: thrombin inhibition, dose response, biochemical, fluorescence polarization, uHTS hits (AID 602369); type: functional
[24] = target: 72 kDa type IV collagenase (Homo sapiens, UniProt P08253); assay: Dose Response validation of uHTS RPN11 inhibitor hits using a MMP-2 Fluorescence assay.; type: functional
Chain of 72 kDa type IV collagenase (P08253 whole entry): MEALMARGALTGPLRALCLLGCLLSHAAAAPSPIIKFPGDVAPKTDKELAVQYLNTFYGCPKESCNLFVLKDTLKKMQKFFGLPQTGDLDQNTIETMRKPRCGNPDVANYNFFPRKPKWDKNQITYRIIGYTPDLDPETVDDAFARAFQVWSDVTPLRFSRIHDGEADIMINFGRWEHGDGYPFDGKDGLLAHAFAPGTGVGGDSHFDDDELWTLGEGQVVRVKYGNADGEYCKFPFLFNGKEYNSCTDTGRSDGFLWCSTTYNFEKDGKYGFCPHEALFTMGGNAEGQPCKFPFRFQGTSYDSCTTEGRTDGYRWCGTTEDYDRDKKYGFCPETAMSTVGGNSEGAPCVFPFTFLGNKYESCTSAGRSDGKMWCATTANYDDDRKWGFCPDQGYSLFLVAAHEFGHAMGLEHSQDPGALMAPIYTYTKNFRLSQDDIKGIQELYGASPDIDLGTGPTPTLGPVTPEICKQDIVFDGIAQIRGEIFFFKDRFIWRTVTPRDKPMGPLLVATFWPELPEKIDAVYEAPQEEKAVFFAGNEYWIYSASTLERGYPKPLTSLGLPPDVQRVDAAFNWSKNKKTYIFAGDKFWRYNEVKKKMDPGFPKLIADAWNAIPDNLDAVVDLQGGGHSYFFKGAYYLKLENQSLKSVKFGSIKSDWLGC

[25] = target: 26S proteasome non-ATPase regulatory subunit 14 (Homo sapiens, UniProt O00487); assay: inhibition of proteasome subunit RPN11 – biochemical, fluorescence polarization, uHTS hits, confirmation (AID 602368); type: functional
Chain of 26S proteasome non-ATPase regulatory subunit 14 (O00487 whole entry): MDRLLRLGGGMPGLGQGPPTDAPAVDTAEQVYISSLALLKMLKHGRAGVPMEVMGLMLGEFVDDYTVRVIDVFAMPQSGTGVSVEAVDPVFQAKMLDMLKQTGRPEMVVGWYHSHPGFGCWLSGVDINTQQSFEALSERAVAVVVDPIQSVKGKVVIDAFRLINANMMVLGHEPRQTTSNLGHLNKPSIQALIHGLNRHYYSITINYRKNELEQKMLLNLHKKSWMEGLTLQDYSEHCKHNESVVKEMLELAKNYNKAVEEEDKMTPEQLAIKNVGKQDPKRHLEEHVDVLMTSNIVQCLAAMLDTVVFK

[26] = target: T2, Insulin-degrading enzyme (Homo sapiens, UniProt P14735); assay: Dose Response: Fluorescence polarization-based cell-based high throughput dose response assay for inhibitors of insulin-degrading enzyme (IDE). [Related pubchem assays: 434962 (Primary screen (IDE inhibitors in singlicate)), 449730 (Counterscreen (Cytotoxicity in triplicate)), 435028 (Confirmation (IDE inhibitors in triplicate)), 434984 (Summary …; type: functional
T2 sequence (P14735 whole entry): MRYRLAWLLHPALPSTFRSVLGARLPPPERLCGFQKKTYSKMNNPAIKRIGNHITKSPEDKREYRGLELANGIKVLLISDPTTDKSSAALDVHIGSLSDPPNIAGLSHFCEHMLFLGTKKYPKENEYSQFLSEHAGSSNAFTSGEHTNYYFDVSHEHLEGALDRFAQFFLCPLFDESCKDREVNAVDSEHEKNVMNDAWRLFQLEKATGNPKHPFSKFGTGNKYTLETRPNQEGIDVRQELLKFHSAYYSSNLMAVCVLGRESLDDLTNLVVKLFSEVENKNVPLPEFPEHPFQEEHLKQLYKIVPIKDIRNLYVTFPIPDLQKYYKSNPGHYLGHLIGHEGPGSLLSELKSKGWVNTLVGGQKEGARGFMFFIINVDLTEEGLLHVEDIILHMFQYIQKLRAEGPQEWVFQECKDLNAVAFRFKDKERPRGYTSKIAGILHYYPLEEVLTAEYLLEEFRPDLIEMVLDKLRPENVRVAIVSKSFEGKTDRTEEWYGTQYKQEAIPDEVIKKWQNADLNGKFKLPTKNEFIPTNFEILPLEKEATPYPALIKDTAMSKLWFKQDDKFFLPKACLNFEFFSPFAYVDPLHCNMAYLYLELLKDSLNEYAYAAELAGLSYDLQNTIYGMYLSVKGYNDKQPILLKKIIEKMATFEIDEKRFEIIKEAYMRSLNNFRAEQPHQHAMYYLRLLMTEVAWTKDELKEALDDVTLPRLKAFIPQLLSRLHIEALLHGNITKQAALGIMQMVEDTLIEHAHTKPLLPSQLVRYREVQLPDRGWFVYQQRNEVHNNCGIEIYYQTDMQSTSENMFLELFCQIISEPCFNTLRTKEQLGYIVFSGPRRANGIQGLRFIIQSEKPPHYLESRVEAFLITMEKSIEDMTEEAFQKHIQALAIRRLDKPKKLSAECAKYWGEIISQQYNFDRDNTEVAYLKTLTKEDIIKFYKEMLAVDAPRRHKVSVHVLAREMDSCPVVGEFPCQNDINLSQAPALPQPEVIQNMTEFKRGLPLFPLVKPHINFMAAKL

[27] = target: T3, Zinc finger protein mex-5 (Caenorhabditis elegans, UniProt Q9XUB2); assay: MEX-5/TCR-2 RNA interaction inhibitors, dose response, biochemical, C. elegans, fluorescence polarization (AID 1960)
T3 sequence (Q9XUB2 whole entry): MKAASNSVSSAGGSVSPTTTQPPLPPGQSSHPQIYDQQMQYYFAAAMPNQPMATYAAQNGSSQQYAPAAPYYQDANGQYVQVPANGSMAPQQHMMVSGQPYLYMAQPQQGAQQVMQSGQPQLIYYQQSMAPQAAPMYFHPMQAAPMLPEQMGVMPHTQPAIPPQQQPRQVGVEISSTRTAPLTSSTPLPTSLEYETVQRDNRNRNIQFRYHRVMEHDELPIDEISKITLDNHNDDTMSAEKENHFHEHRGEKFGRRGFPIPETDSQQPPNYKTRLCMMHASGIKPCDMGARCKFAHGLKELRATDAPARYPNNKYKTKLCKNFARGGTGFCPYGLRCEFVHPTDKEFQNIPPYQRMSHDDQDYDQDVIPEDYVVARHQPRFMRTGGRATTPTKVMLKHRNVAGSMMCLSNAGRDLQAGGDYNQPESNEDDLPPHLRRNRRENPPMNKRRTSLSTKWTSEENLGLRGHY

[28] = target: T4, RNA-binding protein pos-1 (Caenorhabditis elegans, UniProt G5EF15); assay: inhibitors of POS-1/mex-3 RNA binding, dose response, biochemical, fluorescence polarization (AID 1964);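 also: purified POS-1 fused to maltose binding protein made in E. coli; potency of compounds blocking POS-1 binding to fluorescent RNA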
T4 sequence (G5EF15 whole entry): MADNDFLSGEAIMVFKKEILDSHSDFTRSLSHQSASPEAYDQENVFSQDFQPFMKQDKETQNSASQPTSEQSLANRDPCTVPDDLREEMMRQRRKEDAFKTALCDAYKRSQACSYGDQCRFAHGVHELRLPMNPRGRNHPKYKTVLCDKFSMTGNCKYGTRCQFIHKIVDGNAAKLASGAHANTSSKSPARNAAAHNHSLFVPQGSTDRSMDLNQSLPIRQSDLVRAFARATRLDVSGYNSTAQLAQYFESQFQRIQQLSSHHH

[29] = target: Peroxisome proliferator-activated receptor gamma/Nuclear receptor coactivator 1 (Homo sapiens, UniProt P37231); type: functional;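 also: agonist potency as compounds enhance coactivator SRC-1 recruitment to PPARgamma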
[30] = target: Peroxisome proliferator-activated receptor gamma/Nuclear receptor coactivator 2 (Homo sapiens, UniProt P37231); type: functional;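 also: agonist potency for raising coactivator recruitment to the receptor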
[31] = target: Peroxisome proliferator-activated receptor gamma/Nuclear receptor coactivator 3 (Homo sapiens, UniProt P37231); type: functional;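 also: agonist potency for raising coactivator recruitment to the receptor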
[32] = target: Ion channel NompC (Danio rerio, UniProt Q7T1G6); assay: Fluorescence counterscreen assay for TRPML3 agonists: dose response cell-based high-throughput screening assay to identify agonists of the transient receptor potential channel N1 (TRPN1). [Related pubchem assays: 1526, 1424, 1448 ]; type: functional
Chain of Ion channel NompC (Q7T1G6 whole entry): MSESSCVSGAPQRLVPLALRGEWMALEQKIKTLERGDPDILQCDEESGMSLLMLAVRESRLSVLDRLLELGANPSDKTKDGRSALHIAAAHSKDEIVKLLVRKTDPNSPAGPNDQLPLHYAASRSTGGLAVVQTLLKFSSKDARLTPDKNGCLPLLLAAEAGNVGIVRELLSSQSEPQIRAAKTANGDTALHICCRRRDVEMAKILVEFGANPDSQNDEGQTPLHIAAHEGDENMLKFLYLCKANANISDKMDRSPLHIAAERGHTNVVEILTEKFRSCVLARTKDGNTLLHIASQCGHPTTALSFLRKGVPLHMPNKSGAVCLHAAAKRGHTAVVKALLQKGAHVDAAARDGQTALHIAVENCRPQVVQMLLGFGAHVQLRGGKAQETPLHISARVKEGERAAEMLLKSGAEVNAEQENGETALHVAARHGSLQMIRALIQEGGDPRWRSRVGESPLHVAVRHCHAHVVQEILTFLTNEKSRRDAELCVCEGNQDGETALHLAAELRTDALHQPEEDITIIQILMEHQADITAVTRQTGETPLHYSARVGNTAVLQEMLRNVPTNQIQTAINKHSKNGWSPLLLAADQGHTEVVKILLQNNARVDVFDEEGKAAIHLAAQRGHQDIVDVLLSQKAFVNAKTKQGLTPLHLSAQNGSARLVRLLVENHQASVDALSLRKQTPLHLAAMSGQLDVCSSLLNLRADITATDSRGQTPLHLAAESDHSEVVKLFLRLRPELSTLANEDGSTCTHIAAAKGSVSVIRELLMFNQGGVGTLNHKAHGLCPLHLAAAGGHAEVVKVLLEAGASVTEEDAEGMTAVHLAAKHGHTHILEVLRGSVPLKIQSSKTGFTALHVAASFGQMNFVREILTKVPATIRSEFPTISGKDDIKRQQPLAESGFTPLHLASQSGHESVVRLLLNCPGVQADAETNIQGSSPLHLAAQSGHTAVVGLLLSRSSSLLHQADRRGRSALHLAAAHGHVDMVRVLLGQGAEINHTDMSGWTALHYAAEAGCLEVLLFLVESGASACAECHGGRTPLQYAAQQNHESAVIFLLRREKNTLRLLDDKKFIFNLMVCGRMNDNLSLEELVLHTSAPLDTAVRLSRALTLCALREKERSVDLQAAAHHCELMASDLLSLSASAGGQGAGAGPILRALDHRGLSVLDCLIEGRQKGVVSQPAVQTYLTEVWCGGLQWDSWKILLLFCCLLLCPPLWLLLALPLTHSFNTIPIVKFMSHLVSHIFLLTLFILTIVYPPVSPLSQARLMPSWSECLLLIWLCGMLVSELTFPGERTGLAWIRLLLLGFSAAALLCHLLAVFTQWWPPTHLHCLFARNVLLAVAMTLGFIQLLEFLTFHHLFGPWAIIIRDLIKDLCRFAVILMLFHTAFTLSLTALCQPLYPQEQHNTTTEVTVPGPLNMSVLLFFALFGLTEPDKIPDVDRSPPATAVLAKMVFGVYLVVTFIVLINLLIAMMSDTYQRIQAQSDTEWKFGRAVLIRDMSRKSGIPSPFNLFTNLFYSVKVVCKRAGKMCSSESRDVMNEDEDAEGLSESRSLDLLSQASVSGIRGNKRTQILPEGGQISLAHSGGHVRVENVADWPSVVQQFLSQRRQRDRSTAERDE

[33] = target: Mucolipin-3 (Homo sapiens, UniProt Q8TDD5); assay: Dose response cell-based high-throughput screening assay for agonists of the transient receptor potential channel ML3 (TRPML3). [Related pubchem assays: 1526, 1424, 1448 ]; type: functional
Chain of Mucolipin-3 (Q8TDD5 whole entry): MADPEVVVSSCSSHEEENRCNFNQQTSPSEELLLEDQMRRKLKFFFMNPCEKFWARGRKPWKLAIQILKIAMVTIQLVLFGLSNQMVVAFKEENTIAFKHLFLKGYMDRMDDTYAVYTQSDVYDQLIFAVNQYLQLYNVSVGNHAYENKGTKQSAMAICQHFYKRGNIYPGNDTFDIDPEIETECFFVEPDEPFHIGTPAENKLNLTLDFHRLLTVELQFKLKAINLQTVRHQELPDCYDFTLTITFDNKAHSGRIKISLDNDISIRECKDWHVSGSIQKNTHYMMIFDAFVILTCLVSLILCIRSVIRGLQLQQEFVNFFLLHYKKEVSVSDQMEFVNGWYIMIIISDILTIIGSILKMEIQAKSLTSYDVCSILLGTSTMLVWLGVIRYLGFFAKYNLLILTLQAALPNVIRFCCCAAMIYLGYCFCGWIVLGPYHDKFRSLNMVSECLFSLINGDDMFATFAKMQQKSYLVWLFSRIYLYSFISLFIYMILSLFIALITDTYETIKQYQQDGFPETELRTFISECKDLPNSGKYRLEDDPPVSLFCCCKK

[34] = target: T5, Mannose-6-phosphate isomerase (Homo sapiens, UniProt P34949); assay: inhibitors of human PMI, primary screen, biochemical, fluorescence intensity, coupled assay (AID 1209)
T5 sequence (P34949 whole entry): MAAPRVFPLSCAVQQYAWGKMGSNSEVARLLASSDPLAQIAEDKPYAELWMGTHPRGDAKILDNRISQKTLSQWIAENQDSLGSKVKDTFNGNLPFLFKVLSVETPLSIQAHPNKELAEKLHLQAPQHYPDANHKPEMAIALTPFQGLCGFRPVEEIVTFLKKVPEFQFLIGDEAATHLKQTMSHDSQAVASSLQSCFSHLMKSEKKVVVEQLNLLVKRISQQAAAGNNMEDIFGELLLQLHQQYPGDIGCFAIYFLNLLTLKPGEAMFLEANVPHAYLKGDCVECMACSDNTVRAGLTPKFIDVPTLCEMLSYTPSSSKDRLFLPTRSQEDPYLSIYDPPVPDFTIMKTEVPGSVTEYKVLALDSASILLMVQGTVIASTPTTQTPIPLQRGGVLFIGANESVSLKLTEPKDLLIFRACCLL

Compound: COc1cccc(N=Nc2ccc(O)c3ncccc23)c1
- EC50 [1]: 8.08 µM (inconclusive)
- IC50 [2]: > 25 µM (active)
- AC50 [3]: 2.1 µM (active)
- EC50 [4]: 1.05 µM (active)
- EC50 [5]: 12.7 µM (inconclusive)
- CC50 [6]: 6.41 µM (active)
- EC50 [7]: 13.6 µM (active)
- EC50 [8]: 2.8 µM (inconclusive)
- EC50 [9]: > 180 µM (inactive)
- EC50 [10]: 0.79 µM (active)
- IC50 [11]: > 20 µM (inactive)
- IC50 [12]: 3.04 µM (active)
- AC50 [13]: 3.6 µM (active)
- EC50 [14]: 7.7 µM (inconclusive)
- EC50 [15]: > 20 µM (inactive)
- EC50 [16]: 2.99 µM (active)
- EC50 [17]: 3.74 µM (active)
- IC50 [18]: 3.4 µM (inactive)
- AC50 [19]: 4.01 µM (active)
- EC50 [20]: > 160 µM (inactive)
- IC50 [21]: > 20 µM (inactive)

Compound: COc1cc(OC)c(OC)cc1/C=C1\Oc2cc(OS(C)(=O)=O)ccc2C1=O
- IC50 [22]: > 55.7 µM (not active)
- IC50 [23]: 0.468 µM (active)
- IC50 [24]: > 100 µM (inactive)
- IC50 [25]: 4.35 µM (active)
- IC50 [26]: > 55.9 µM (not active)
- EC50 [27]: > 300 µM (not active)
- EC50 [28]: > 300 µM (not active)

Compound: CC(=O)Nc1c(O)nc(SCC(=O)Nc2ccc(C(C)=O)cc2)[nH]c1=O
- EC50 [29]: > 79.4 µM (not active)
- EC50 [30]: > 79.4 µM (not active)
- EC50 [31]: > 79.4 µM (not active)

Compound: Cc1ccc(S(=O)(=O)N2CC3CCCC2C3)cc1 (stereo unspecified)
- EC50 [32]: > 29.9 µM (not active)
- EC50 [33]: 3.78 µM (active)

Compound: CC(=O)Nc1cc(/N=C/c2ccc(O)cc2O)c(Cl)cc1Cl
- IC50 [22]: 16 µM (not active)
- IC50 [26]: > 6.22 µM (active)

Compound: O=C(O)c1cccc(N/N=C/c2cccnc2)c1
- IC50 [34]: > 50 µM (not active)
